Data as given in publication PMC7601681, “Human Serum Albumin Binds Native Insulin and Aggregable Insulin Fragments and Inhibits Their Aggregation” (Biomolecules, 2020).

Legend:
HSA = molecular target: T1, HSA (Homo sapiens, UniProt P02768); details: probe trapped inside HSA; cited from earlier work
T1 construct: purchased Sigma-Aldrich
From the text: The calculated value also confirmed existence of interactions between 2 and HSA with pyrene fragment presented on less polar environment inside protein. […] The binding constants 1.5 ± 0.3 × 10^6 dm^3 ...

albumins = details: cited from earlier work
From the text: Pyrene and its derivatives are very popular fluorescent markers used to study interactions with HSA [49, 50, 51, 52]. Despite the fact that there is differentiated localization of pyrene derivatives in HSA, these systems are commonly applied as fluorescent probes, due to the high sensitivity of their fine vibronic structure to changes in the environment (the Ham effect) and long fluorescence lifetimes. […] A similar trend was also observed for the complex of ...

[1] = Light microscopy of Congo Red stained aggregates; assay type: physicochemical; details: CR staining 3 days; for microscopic examination of CR-stained aggregates, in the presence of HSA: peptide 1.44 mM, HSA 0.30 mM, phosphate buffer 0.1 M pH 7.2, 7 days at 37.4 °C; for microscopic examination of CR-stained aggregates, without HSA: phosphate buffer 0.1 M pH 7.2, 7 days at 37 °C
Procedure: Microscopic studies were carried out for samples prepared in phosphate buffer (0.1 M, pH 7.2) incubated for 7 days at 37.4 °C. To 2 mL of H-LYQLENY-OH (5) and H-VEALYL-OH (6) (c = 2.88 mM) solution was added 2 mL of HSA solution (c = 0.60 mM). The final concentration of incubated peptides was equal to c = 1.44 mM, whereas, for plasma protein, it was 0.30 mM. Incubation was also performed for 4 mL of an HSA sample (c = 0.3 mM). After that period, 4 mL of CR solution (c = 45 μM in phosphate buffer, pH 7.2) was added to the all samples, which were incubated for another 3 days at room temperature.
The microscopic assays were performed for samples stained with Congo Red dye. The samples were transferred on a microscopic slide and visualized using a Delta Optical Genetic Pro (Warsaw, Poland) light microscope.

[2] = Circular dichroism (CD) after incubation with HSA; assay type: physicochemical; details: 0.1 mg/mL, phosphate buffer pH 7.2, measured after 30 min, two and four days of incubation at 37 °C, 190–270 nm
Procedure: Samples were prepared by dissolving 1 mg of the analyzed peptide in phosphate buffer pH 7.2 (10 mL), to a final concentration of 0.1 mg/mL All measurements were carried out at room temperature using a quartz cuvette (1 mm path length, Hellma). The experimental settings were as follows: measurements range, 190–270 nm; data pitch, 5 nm; scanning mode, continuous; scanning speed, 100 nm/min; bandwidth, 3 nm; integration time, 1 s.
The CD spectra were recorded using a Jasco J-1500 instrument (Jasco, Cracow, Poland) and quartz cuvettes with 1 mm optical path lengths. The measurements were acquired in the range of 190–270 nm at ambient temperature by taking points every 5 nm, with a scan rate of 100 nm per min, an integration time of 1 s, and a bandwidth of 4 nm. The samples were prepared in phosphate buffer (0.1 M, pH 7.2) with a final concentration of 0.1 mg/mL.
Circular dichroism (CD) spectroscopy can be a very valuable source of information about differences in the secondary structure of peptides and proteins. It has been shown that all α-helical proteins show a strong minimum at 222 nm and 208–210 nm and a strong maximum at 191–193 nm. In the case of β-sheet protein, a single negative band may be observed in the 210–225 nm wavelength range and a strong positive band in the 190–200 nm wavelength range, although their intensities are noticeably lower than those for α-proteins. The CD spectra recorded for buffered solutions of insulin (4) and hot-spot fragments (5), (6) in the presence of HSA as well as for native insulin are presented in Figure 9a,b. The measurements were performed after 30 min (sample 0), and then after two and four days of incubation at 37 °C.

[3] = Thioflavin T (ThT) fluorescence aggregation assay; assay type: physicochemical; details: peptide 0.33 mM with HSA 0.33 mM, phosphate buffer pH 6.0, 7 days at 37.2 °C, then ThT for 3 days, λexc 440 nm, 470–600 nm
Procedure: Insulin, peptides 5 and 6, and HSA (final concentration 0.66 mM), as well as each sample of the mixture of insulin, peptides 5 and 6) (0.33 mM) with HSA (0.33 mM) were incubated in phosphate buffer solution, pH 6.0 (2 mL), for 7 days at a temperature of 37.2 °C. Then, 2 mL of a solution of Thioflavin T ([…] in phosphate buffer, pH 6.0) was added to the samples. Incubation continued for another 3 days. During this time, spectroscopic measurements of all samples were performed in the range of 470–600 nm, excitation wavelength 440 nm. The intensity of fluorescence spectra recorded on the first, second, and third days of incubation for all samples. are shown in the Supplementary Material (Figures S3 and S4).
The fluorescence intensity measurements were carried out using a FLUOROMAX-4 system from Horiba Scientific (Edison, NJ, USA), measurement range of 470–600 nm, excitation wavelength 440 nm.

[4] = Congo Red (CR) UV-Vis aggregation assay; assay type: physicochemical; details: peptide 1.44 mM with HSA 1.44 mM, phosphate buffer pH 7.2, 7 days at 37.2 °C, then CR 45 μM for 3 days, UV-Vis 400–800 nm
Procedure: Insulin, peptides 5 and 6, and HSA (final concentration 2.88 mM), as well as each sample of the mixture of insulin, peptides 5 and 6) (1.44 mM) with HSA (1.44 mM), were incubated in phosphate buffer solution at pH 7.2 (1 mL) for 7 days at a temperature of 37.2 °C. Then, 1 mL of a solution of Congo Red dye (45 μM in phosphate buffer, pH 7.2) was added to each incubated sample. Incubation continued for another 3 days. During this time, spectroscopic measurements of all the samples were performed in the range of 400–800 nm. The UV-Vis spectra recorded on the first, second, and third days of incubation for all samples are shown in the Supplementary Material (Figures S1 and S2).
The UV-Vis measurements were carried out using a Hitachi spectrophotometer (Hitachi, Tokyo, Japan).

T1 sequence (P02768 25-609): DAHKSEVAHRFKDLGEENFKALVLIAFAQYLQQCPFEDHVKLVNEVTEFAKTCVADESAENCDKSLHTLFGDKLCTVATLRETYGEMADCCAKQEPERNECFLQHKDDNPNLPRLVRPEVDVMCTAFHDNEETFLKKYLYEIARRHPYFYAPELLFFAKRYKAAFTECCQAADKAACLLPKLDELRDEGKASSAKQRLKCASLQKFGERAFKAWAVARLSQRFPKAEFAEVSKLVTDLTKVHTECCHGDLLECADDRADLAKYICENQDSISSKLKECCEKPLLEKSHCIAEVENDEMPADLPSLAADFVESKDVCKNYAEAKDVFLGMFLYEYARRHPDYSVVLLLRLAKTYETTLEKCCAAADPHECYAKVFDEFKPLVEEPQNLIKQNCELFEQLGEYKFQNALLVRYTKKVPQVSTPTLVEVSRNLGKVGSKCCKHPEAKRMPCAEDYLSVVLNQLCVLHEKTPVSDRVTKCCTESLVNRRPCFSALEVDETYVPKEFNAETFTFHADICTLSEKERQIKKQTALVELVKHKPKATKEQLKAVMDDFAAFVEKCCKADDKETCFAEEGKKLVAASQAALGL

Molecule | microscopic examination of CR-stained aggregates, in the presence of HSA [1] | microscopic examination of CR-stained aggregates, without HSA [1] | secondary structure / amyloid formation in the presence of HSA by CD [2] | Thioflavin T assay of HSA complexes: fluorescence intensity [3] | Congo Red assay of HSA complexes: absorbance change [4] | also measured
O=S(=O)(O)c1ccc2ccc3cccc4ccc1c2c34 [PSA, 1-pyrene sulfonic acid] |  |  |  |  |  | binding constant, non-specific binding (HSA): 3.8 × 10^5 dm^3 mol^−1; binding constant, specific receptor site (HSA): 6.5 × 10^6 dm^3 mol^−1
O=C(O)CCCc1ccc2ccc3cccc4ccc1c2c34 [PBA, 4-(1-pyrene)butyric acid] |  |  |  |  |  | affinity for albumin (albumins): weak affinity
c1cc2ccc3cccc4ccc(c1)c2c34 [Pyrene] |  |  |  |  |  | binding constant with albumins (albumins; nonspecific binding, order of magnitude): ~10^4 dm^3 mol^−1
H-VEALYL-OH [VEALYL, H-VEALYL-OH] | significantly less content of fibers characteristic for amyloid deposits | typical amyloid fibers | prevents the formation of amyloid fibrils | no increase in fluorescence intensity | no decrease in absorbance typical for amyloid structures | 
insulin: native human recombinant insulin (Sigma-Aldrich) |  |  | does not tend to form amyloid fibrils | no increase in fluorescence intensity | no decrease in absorbance typical for amyloid structures | 
H-LYQLENY-OH [LYQLENY, H-LYQLENY-OH] | significantly less content of fibers characteristic for amyloid deposits | typical amyloid fibers | increase in the amount of the α-helix structure | no increase in fluorescence intensity | no decrease in absorbance typical for amyloid structures | 
